{"source": "paper PMC6401476", "about": "“The Evolution of SlyA/RovA Transcription Factors from Repressors to Countersilencers in Enterobacteriaceae” (mBio, 2019)", "molecules": {"B1": {"name": "SlyA of Salmonella enterica serovar Typhimurium (His-SlyA) (natural protein)", "chain": "ESPLGSDLARLVRIWRALIDHRLKPLELTQTHWVTLHNIHQLPPDQSQIQLAKAIGIEQPSLVRTLDQLEDKGLISRQTCASDRRAKRIKLTEKADALIAEMEEVIHKTRGEILAGISSEEIELLIKLIAKLEHNIMELHSHD", "notes": "SlyA, MarR family transcription factor, Salmonella enterica serovar Typhimurium; the tips of the wings are not seen in the model; Residue numbers in the text are based on an alignment of SlyA orthologs and are not in register with the numbers of the deposited PDB file 3DEU; Strains were built in the ATCC 14028s background; also called SlyASTM; SlyASTm; not shown: 6xHis, N-terminal, kept"}}, "key": {"[1]": {"molecular_target": "T1, SlyA (Salmonella enterica, UniProt P40676)", "T1 construct": "His-SlyA (N-terminal 6×His-tagged)", "T1 sequence (P40676 whole entry)": "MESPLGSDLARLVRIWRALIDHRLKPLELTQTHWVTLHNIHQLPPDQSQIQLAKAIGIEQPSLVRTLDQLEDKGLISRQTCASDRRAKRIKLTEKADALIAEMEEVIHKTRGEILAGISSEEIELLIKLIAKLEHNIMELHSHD", "test": "intrinsic tryptophan fluorescence quenching; 1H, […]-TROSY NMR", "type": "binding"}, "[2]": {"molecular_target": "T1, SlyA", "test": "crystal structure at […] Å; 1H, […]-TROSY NMR; supported by in vitro transcription", "type": "binding"}, "[3]": {"molecular_target": "the molecule itself", "test": "crystal structure; His-SlyA co-crystallised with 75 mM sodium salicylate; sitting-drop vapor diffusion, room temperature; 20% PEG 400, 10% glycerol, 0.1 M phosphate-citrate buffer pH 4.2, 0.2 M ammonium sulfate; space group P21212, two SlyA molecules in the asymmetric unit, each dimer completed by space group symmetry"}}}
{"molecule": "O=C(O)c1ccccc1", "note": "[benzoate]", "values": [{"measurement": "Kd", "setting": "[1]", "result": "~40", "unit": "µM"}]}
{"molecule": "O=C(O)c1ccccc1O", "note": "[salicylate]", "values": [{"measurement": "crystal structure at 2.3 Å; 1H,15N-TROSY NMR; supported by in vitro transcriptio", "setting": "[2]", "result": "The crystal structure of the SlyA dimer with salicylate bound at sites I and II was determined"}]}
{"molecule": "B1", "values": [{"measurement": "stoichiometry N", "setting": "[3]", "result": 2}]}
